The values below come from patent US5900488A, “Method for treating mycosis using imidazolylacetonitrile derivatives” (Nihon Nohyaku Co., Ltd., priority 1995, dated 1999).

Converted amounts (≈) assume the structure as drawn. Where two headings read alike, the source gives them in different places.

The subject of experiment [1] is Candida albicans. Briefly: In vitro antifungal activity against Candida albicans, MIC by twofold micro-broth dilution (Test Example 3). The settings on record: 48 hours at 35° C., pH 7.0, read-out: MIC. Format: cell-based. How it is done:
MICs were determined by the twofold micro-broth dilution method with RPMI 1640 buffered with morphorino-propanesulfonic acid to a final molarity of 0.165M (pH 7.0). One hundred μl of a yeast cell suspension (1 to 5×10^3 cells/ml) and 100 μl of the compound-containing medium were pipetted into each well flat-bottomed microtiter plates. After incubation for 48 hours at 35° C., the turbidity of each well was measured at 630 nm.

Experiment [2] relates to Trichophyton rubrum. Kind of experiment: In vitro activity against Trichophyton rubrum, MIC by twofold macro-broth dilution (Test Example 1). Format: cell-based. How it is done: (§1) Minimum inhibitory concentrations (MICs) were determined by the twofold macro-broth dilution method with Sabouraud's glucose broth which constituted with 1% bactopeptone and 4% glucose. To each tube containing 9.8 ml of the broth, 0.1 ml of each testing compound dissolved in DMSO and 0.1 ml of a conidial suspension (1×10^6 conidia/ml) were added. The fungal growth was observed after incubation for 7 days at 27° C. The MIC was determined as the lowest drug concentration which prevented a visible fungal growth.

In experiment [3] the test system is trichophyton mentagrophytes TIMM 2789. Kind of experiment: Therapeutic efficacy on experimental tinea pedis in guinea pigs (Test Example 2). Format: in vivo. How it is done: Male Hartley guinea pigs (Japan SLC Inc.) weighing 400 to 620 g were used for the infection study. One side of a paper disc (1.5 mm thick×8 mm diameter) was covered with a piece of aluminum foil while the other side was free to carry the inoculum suspension. The disc was immersed with 50 μl of the inoculum suspension (trichophyton mentagrophytes TIMM 2789, 1×10^8 conidia/ml), and was then fixed on the planta pedis of animal feet with an adhesive elastic tape. The disc was removed on the seventh day postinfection. Each agent dissolved in PEG 400 (0.1 ml/locus) was topically applied to the whole soles of guinea pigs once a day for 3 consecutive days, starting on the 10th day postinfection. Five days after the last treatment, the skin tissue from each planta pedis and the corresponding tarsus of all animals was cut into small blocks (about 2×2 mm). Ten skin blocks obtained from each part of the foot were implanted on a Sabouraud's glucose agar plate containing antibiotics, and were cultured at 27° C. for 14 days. The skin blocks yielding fungal growth were regarded as culture-positive, and the foot (planta pedis plus tarsus) with more than one culture-positive skin block was considered fungus-positive. In addition, the intensity of infection was assessed by the scores based on the number of culture-positive skin blocks. Namely, +10, +9, +8, +7, +6, +5, +4, +3, +2, +1 or 0 was given as the score according to the corresponding number of culture-positive skin blocks out of ten skin blocks studied. Statistical analyses for the rate of fungus-positive feet and the average intensity of infection were assessed by Fisher's exact probably test and Mann-Whitney's U-test, respectively.

The test system of experiment [4] is Trichophyton mentagrophytes. Briefly: In vitro activity against Trichophyton mentagrophytes, MIC by twofold macro-broth dilution (Test Example 1). Format: cell-based. The settings on record: Trichophyton mentagrophytes, 7 days at 27° C. Here is the method:
as §1

Experiment [5] relates to Aspergillus fumigatus. Kind of experiment: In vitro antifungal activity against Aspergillus fumigatus, MIC by twofold agar dilution (Test Example 4). Format: cell-based. How it is done:
MICs were determined by the twofold agar dilution method with casitone agar which constituted with 0.9% bactocasitone, 1% bacto-yeast extract, 2% glucose, 0.1% KH2 PO4, 0.1% Na2 HPO4, 1% Na3 C6 H5 O7 and 1.6% agar. A loopful of each inoculum (1×10^6 conidia/ml) was streaked onto the agar plate containing a compound, and a fungal growth was observed after incubation for 48 hours at 35° C. The MIC was determined as the lowest drug concentration which prevented a visible fungal growth.

Where [6] appears, read: 1% in PEG 400, topical once a day for 3 days, p < 0.01 vs untreated and PEG 400, Compound (A) also p < 0.05 vs 1% Racemic Compound (A).
Setting [7] is: 1% in PEG 400, topical once a day for 3 days, p < 0.01 vs untreated and PEG 400 control.

Take `N#C/C(=C1/SCC(c2ccccc2Cl)S1)n1ccnc1` (racemic) [Racemic Compound (A), (±)-(E)-[4-(2-chlorophenyl)-1,3-dithiolan-2-ylidene]-1-imidazolylacetonitrile]: the minimal inhibitory concentration (MIC) in experiment [1] (IFO0197, strain IFO 0197, 80% inhibition) is 0.25 mg/L (≈ 0.782 µM); in experiment [1] (IFO0579, strain IFO 0579, 80% inhibition) it was 0.0625 mg/L (≈ 0.195 µM); in experiment [1] (IFO1269, strain IFO 1269, 80% inhibition), 0.125 mg/L (≈ 0.391 µM); in experiment [1] (IFO1270, strain IFO 1270, 80% inhibition) it was 1 mg/L (≈ 3.13 µM); in experiment [1] (IFO1385, strain IFO 1385, 80% inhibition), 0.25 mg/L (≈ 0.782 µM); in experiment [1] (IFO1386, strain IFO 1386, 80% inhibition), 0.25 mg/L (≈ 0.782 µM). For the same molecule, the MIC in experiment [1] (TIMM3163, strain TIMM 3163, 80% inhibition) was 16 mg/L (≈ 50 µM); in experiment [1] (TIMM3164, strain TIMM 3164, 80% inhibition) it was 0.5 mg/L (≈ 1.56 µM); in experiment [1] (TIMM3165, strain TIMM 3165, 80% inhibition), 4 mg/L (≈ 12.5 µM); in experiment [1] (TIMM3166, strain TIMM 3166, 80% inhibition), 2 mg/L (≈ 6.25 µM); in experiment [2] (IFO5467, 168 h, strain IFO 5467, 7 days at 27° C.) it was 0.005 mg/L (≈ 0.0156 µM); in experiment [2] (IFO5807, 168 h, strain IFO 5807, 7 days at 27° C.) it was 0.01 mg/L (≈ 0.0313 µM). Moreover, the MIC in experiment [2] (IFO5808, 168 h, strain IFO 5808, 7 days at 27° C.) was found to be 0.01 mg/L (≈ 0.0313 µM); in experiment [2] (IFO6203, 168 h, strain IFO 6203, 7 days at 27° C.), 0.005 mg/L (≈ 0.0156 µM); in experiment [2] (IFO6204, 168 h, strain IFO 6204, 7 days at 27° C.), 0.01 mg/L (≈ 0.0313 µM); in experiment [2] (IFO9185, 168 h, strain IFO 9185, 7 days at 27° C.), 0.0025 mg/L (≈ 0.00782 µM); in experiment [2] (TIMM1822, 168 h, strain TIMM 1822, 7 days at 27° C.) it was 0.005 mg/L (≈ 0.0156 µM); in experiment [2] (TIMM1823, 168 h, strain TIMM 1823, 7 days at 27° C.), 0.01 mg/L (≈ 0.0313 µM). In addition, the minimum inhibitory concentration (MIC) in experiment [2] (TIMM1824, 168 h, strain TIMM 1824, 7 days at 27° C.) is 0.005 mg/L (≈ 0.0156 µM); in experiment [2] (TIMM1830, 168 h, strain TIMM 1830, 7 days at 27° C.), 0.0013 mg/L (≈ 0.00406 µM); in experiment [4] (IFO5466, 168 h, strain IFO 5466), 0.04 mg/L (≈ 0.125 µM); in experiment [4] (IFO5809, 168 h, strain IFO 5809) it was 0.01 mg/L (≈ 0.0313 µM); in experiment [4] (IFO5810, 168 h, strain IFO 5810), 0.01 mg/L (≈ 0.0313 µM); in experiment [4] (IFO5811, 168 h, strain IFO 5811) it was 0.04 mg/L (≈ 0.125 µM). Also, the minimum inhibitory concentration (MIC) was 0.02 mg/L (≈ 0.0625 µM) in experiment [4] (IFO5929, 168 h, strain IFO 5929); 0.04 mg/L (≈ 0.125 µM) in experiment [4] (TIMM1189, 168 h, strain TIMM 1189); 0.04 mg/L (≈ 0.125 µM) in experiment [4] (TIMM1814, 168 h, strain TIMM 1814); 0.04 mg/L (≈ 0.125 µM) in experiment [4] (TIMM1815, 168 h, strain TIMM 1815); 0.04 mg/L (≈ 0.125 µM) in experiment [4] (TIMM1817, 168 h, strain TIMM 1817); 0.01 mg/L (≈ 0.0313 µM) in experiment [4] (TIMM2789, 168 h, strain TIMM 2789). Moreover, the MIC in experiment [5] (TIMM0063, strain TIMM 0063, 48 hours at 35° C., read-out: MIC) amounted to 0.0013 mg/L (≈ 0.00406 µM); in experiment [5] (TIMM0078, strain TIMM 0078, 48 hours at 35° C., read-out: MIC), 0.0013 mg/L (≈ 0.00406 µM); in experiment [5] (TIMM1728, strain TIMM 1728, 48 hours at 35° C., read-out: MIC), 0.0013 mg/L (≈ 0.00406 µM); in experiment [5] (TIMM1767, strain TIMM 1767, 48 hours at 35° C., read-out: MIC) it was 0.0025 mg/L (≈ 0.00782 µM). Besides, in experiment [3] (setting [6]), the “Fungus-positive rate (%)” value was determined as 40%. Moreover, the “Fungus-positive rate: The number of positive feet/The total number of feet” value in experiment [3] (setting [6]) was 4/10 and four feet among the inoculated ten feet. Moreover, in experiment [3] (setting [7]), the “Average intensity of infection, planta pedis (score 0 to +10)” value was “+0.6”. In experiment [3] (setting [7]), the “Average intensity of infection, tarsus (score 0 to +10)” value is reported as “+0.2”. For the same molecule, in experiment [3] (1% treated group), the “curative effect (in words)” value was “significant curative effect”.

On to `CCC(C)n1ncn(-c2ccc(N3CCN(c4ccc(OC[C@H]5CO[C@](Cn6cncn6)(c6ccc(Cl)cc6Cl)O5)cc4)CC3)cc2)c1=O` (relative stereo) [ITZ, (±)1-sec-Butyl-4-[p[4[p[[2R*,4S*2-(2,4-dichlorophenyl)-2-(1H-1,2,4-trizol-1-ylmethyl)-1,3-dioxolan-4-yl]methoxy]phenyl1-piperazinyl]phenyl.DELTA^21,2,4-triazolin-5-one], for which the MIC in experiment [5] (TIMM0063, 48 h) came to 0.04 mg/L (≈ 0.0567 µM); in experiment [5] (TIMM0078, 48 h), 0.04 mg/L (≈ 0.0567 µM); in experiment [5] (TIMM1728, 48 h) it was 0.08 mg/L (≈ 0.113 µM); in experiment [5] (TIMM1767, 48 h), 0.08 mg/L (≈ 0.113 µM).
